Data published in article PMC6076275, “Novel Arginine-containing Macrocyclic MMP Inhibitors: Synthesis, ^99mTc-labeling, and Evaluation” (Scientific Reports, 2018).
In brackets after ≈: the same amount, converted by molar mass. Where two headings read alike, the source gives them in different places.

What was measured:
rhMMP-12 [1] = target: T1, rhMMP-12 (Homo sapiens, UniProt P39900); set-up: method as in PMID 28360209; settings: value marked with citation; cited from earlier work
T1 construct: purchased R&D Systems (Minneapolis, MN, USA)
T1 sequence (P39900 106-470): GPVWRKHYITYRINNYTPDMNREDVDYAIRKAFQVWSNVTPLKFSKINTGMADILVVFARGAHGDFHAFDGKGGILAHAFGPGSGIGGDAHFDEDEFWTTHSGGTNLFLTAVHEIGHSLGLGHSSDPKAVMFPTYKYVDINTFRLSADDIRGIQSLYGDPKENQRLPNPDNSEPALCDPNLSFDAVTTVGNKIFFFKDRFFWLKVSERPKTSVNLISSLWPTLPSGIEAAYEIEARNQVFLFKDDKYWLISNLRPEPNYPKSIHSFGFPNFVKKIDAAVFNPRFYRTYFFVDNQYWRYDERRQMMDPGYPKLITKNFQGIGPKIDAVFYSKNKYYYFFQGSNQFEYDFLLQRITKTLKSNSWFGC

[2] = target: Recombinant Human TACE/ADAM17 (Homo sapiens, UniProt P78536); test: TACE inhibition assay, fluorogenic peptide substrate
Sequence of Recombinant Human TACE/ADAM17 (P78536 215-824): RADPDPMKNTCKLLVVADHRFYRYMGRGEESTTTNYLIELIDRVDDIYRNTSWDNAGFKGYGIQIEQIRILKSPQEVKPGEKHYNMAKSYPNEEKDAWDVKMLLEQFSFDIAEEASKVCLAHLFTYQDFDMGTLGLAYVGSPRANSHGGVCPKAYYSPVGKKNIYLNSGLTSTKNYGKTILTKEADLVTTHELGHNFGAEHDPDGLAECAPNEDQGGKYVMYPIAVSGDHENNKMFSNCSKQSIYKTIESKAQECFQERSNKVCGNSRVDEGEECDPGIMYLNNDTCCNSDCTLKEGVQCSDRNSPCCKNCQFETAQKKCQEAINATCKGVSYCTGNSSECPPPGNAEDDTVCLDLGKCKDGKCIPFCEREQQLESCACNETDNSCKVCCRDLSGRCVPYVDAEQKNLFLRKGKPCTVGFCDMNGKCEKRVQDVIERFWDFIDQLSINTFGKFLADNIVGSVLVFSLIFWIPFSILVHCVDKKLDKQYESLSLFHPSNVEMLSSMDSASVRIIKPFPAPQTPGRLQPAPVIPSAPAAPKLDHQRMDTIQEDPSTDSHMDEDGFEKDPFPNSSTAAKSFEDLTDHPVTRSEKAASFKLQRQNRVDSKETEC

Water solubility = format: physicochemical; settings: described as good water solubility
[3] = background statement, no own test described; cited from earlier work
rhMMP-13 = target: T2, rhMMP-13 (Homo sapiens, UniProt P45452); test: MMP inhibition assay, fluorogenic substrate cleavage kinetics; format: biochemical
T2 construct: purchased R&D Systems (Minneapolis, MN, USA)
Description: (§1) MMP inhibition assays were carried out based on the kinetic effects of an inhibitor on the MMP-mediated catalytic cleavage of a fluorogenic substrate, namely Mca-Lys-Pro-Leu-Gly-Leu-Dpa-Ala-Arg-NH2, as reported by others previously[9],[23],[28]. In the first set of studies, the inhibitory effect of RYM was evaluated against 5 activated recombinant human (rh)MMPs, including rhMMP-2, rhMMP-7, rhMMP-9, rhMMP-12, and rhMMP-13.
(§2) The recombinant human MMPs (rhMMPs) including rhMMP-2, rhMMP-7, rhMMP-9, rhMMP-12, and rhMMP-13 were purchased from R&D Systems (Minneapolis, MN, USA). A buffer consisting of 50 mM Tris, 10 mM CaCl2, 150 mM NaCl, 0.05% Brij-35 (w/v) (pH 7.5, […]) was used for all the MMP assays. A mixture of the rhMMPs (500 ng, 9 µL in assay buffer) and p-aminophenylmercuric acetate (APMA, 1 µL, 10.0 mM in DMSO) was incubated at 37 °C (1 h/rhMMP-2, 2 h/rhMMP-7, 24 h/rhMMP-9, 4 h/rhMMP-12, and 2 h/rhMMP-13) according to the procedures described by R&D Systems. The activated MMPs were diluted to 500 µL in the assay buffer for inhibition assays. The assays were carried out in 96-well black non-binding surface microplates (Fisher Scientific). Seventy microliter (for inhibitor wells) and 80 µL (control wells) of the assay buffer were first added into each well as designed, followed by adding 10 µL (10 ng) of the activated MMP solutions into each well. The inhibitor solutions at 4 different concentrations (10 µL each well) were added into the corresponding inhibitor wells in the microplate which was then swirled at room temperature for 30 min. Ten microliter of the fluorogenic MMP substrate solutions (R&D SYSTEMS®) at 4 different concentrations (20.0, 30.0, 40.0, and 50.0 µM) in assay buffer were added into each well to make a total volume of 100 µL. […] Finally, the competitive inhibition constants (Ki value) were calculated from the mean velocity values, and related substrate (S) and inhibitor (I) concentrations using GraphPad Prism 6 by the following equation for competitive inhibition, where Vmax is the maximal velocity, the KM Michaelis-Menten constant: v=Vmax[S]/KM(1+[I]/Ki)+[S]

rhMMP-7 = target: T3, rhMMP-7 (Homo sapiens, UniProt P09237); test: as above; format: biochemical; settings: mean ± SD of three experiments
T3 construct: purchased R&D Systems (Minneapolis, MN, USA)
T3 sequence (P09237 95-267): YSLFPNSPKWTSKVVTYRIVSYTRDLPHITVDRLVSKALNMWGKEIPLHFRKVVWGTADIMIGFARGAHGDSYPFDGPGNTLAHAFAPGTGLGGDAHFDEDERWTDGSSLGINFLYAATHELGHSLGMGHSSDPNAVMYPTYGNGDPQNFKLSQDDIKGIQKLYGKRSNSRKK
Description: as §1, with “rhMMP-13. […] RYM also had potent MMP inhibition with Ki values at nM concentrations.” for “rhMMP-13.”
The recombinant human MMPs (rhMMPs) including rhMMP-2, rhMMP-7, rhMMP-9, rhMMP-12, and rhMMP-13 were purchased from R&D Systems (Minneapolis, MN, USA). […] The microplate fluorescence was measured at 320 nm (excitation) and 405 nm (emission) wavelengths for 30 min (1.44 min intervals, sensitivity 100, shaking intensity 4 and duration 30 s) by a fluorescent plate reader (BIO-TEK/Synergy HT) to generate the fluorescence kinetic curves and related mean velocity values (v), i.e. relative fluorescence units per min (RFU/min). Finally, the competitive inhibition constants (Ki value) were calculated from the mean velocity values, and related substrate (S) and inhibitor (I) concentrations using GraphPad Prism 6 by the following equation for competitive inhibition, where Vmax is the maximal velocity, the KM Michaelis-Menten constant: v=Vmax[S]/KM(1+[I]/Ki)+[S]

rhMMP-12 [4] = target: T1, rhMMP-12; test: as above; format: biochemical; settings: mean ± SD of three experiments
Description: as §1, with “rhMMP-13. […] RYM also had potent MMP inhibition with Ki values at nM concentrations.” for “rhMMP-13.”
Next, we evaluated the effect of ^99mTc-labeling on RYM MMP inhibition, using rhMMP-12 as a representative enzyme. A solution of ^99mTc-RYM1 prepared from 2 µg of RYM1 was decayed at −80 °C for two days, lyophilized, and re-dissolved in saline for MMP inhibition assays.
The recombinant human MMPs (rhMMPs) including rhMMP-2, rhMMP-7, rhMMP-9, rhMMP-12, and rhMMP-13 were purchased from R&D Systems (Minneapolis, MN, USA). […] The microplate fluorescence was measured at 320 nm (excitation) and 405 nm (emission) wavelengths for 30 min (1.44 min intervals, sensitivity 100, shaking intensity 4 and duration 30 s) by a fluorescent plate reader (BIO-TEK/Synergy HT) to generate the fluorescence kinetic curves and related mean velocity values (v), i.e. relative fluorescence units per min (RFU/min). […]

rhMMP-9 = target: T4, rhMMP-9 (Homo sapiens, UniProt P14780); test: as above; format: biochemical; settings: mean ± SD of three experiments
T4 construct: purchased R&D Systems (Minneapolis, MN, USA)
T4 sequence (P14780 107-707 limits assumed): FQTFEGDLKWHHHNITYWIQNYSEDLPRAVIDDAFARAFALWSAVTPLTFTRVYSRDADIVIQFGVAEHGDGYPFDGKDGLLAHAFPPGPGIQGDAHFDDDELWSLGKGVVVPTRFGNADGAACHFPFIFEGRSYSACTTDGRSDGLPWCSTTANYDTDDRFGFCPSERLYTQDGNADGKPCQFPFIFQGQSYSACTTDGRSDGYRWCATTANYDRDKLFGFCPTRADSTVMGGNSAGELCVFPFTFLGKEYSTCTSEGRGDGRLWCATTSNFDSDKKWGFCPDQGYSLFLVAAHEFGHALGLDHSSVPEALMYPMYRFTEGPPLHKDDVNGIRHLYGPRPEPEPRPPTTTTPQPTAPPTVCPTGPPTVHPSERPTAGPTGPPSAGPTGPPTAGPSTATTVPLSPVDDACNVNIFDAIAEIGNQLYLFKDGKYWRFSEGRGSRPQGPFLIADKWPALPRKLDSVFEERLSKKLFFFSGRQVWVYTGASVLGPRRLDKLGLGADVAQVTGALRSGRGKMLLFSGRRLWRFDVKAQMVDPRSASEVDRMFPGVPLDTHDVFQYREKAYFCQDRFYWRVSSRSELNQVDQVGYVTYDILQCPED
Description: as §1, §2

rhMMP-2 = target: T5, rhMMP-2 (Homo sapiens, UniProt P08253); test: as above; format: biochemical; settings: mean ± SD of three experiments
T5 construct: purchased R&D Systems (Minneapolis, MN, USA)
T5 sequence (P08253 110-660): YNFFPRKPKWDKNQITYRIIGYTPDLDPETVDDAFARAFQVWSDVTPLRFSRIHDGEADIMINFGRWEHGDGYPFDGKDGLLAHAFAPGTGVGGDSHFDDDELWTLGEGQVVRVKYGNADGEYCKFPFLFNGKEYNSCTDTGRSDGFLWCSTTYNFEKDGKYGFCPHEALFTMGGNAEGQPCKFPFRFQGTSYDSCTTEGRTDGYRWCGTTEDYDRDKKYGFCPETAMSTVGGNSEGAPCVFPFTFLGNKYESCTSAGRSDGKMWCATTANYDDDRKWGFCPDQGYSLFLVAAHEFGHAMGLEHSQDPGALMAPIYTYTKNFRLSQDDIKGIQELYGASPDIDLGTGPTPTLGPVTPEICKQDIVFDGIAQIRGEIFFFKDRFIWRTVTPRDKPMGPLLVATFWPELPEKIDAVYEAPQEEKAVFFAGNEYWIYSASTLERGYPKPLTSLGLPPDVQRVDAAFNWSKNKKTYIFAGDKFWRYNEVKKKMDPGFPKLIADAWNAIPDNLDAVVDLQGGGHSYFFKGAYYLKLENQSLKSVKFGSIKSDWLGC
Description: as §1, §2

Row | Structure (SMILES) | Ki [2] | solubility (Water solubility) | water solubility (in words) [3] | Ki (rhMMP-7) | Ki (rhMMP-12 [4]) | also measured
1 | CC(C)CC1C(=O)NC(C(=O)NC(CCCNC(=N)N)C(=O)NCCNC(=O)c2ccc(NN)nc2)Cc2ccc(cc2)OCCCC1C(=O)NO [RYM1, (6 S,7 R,10 S)-N^10-((S)-5-guanidino-1-((2-(6-hydrazinylnicotinamido)ethyl)amino)-1-oxopentan-2-yl)-N^6-hydroxy-7-isobutyl-8-oxo-2-oxa-9-aza-1(1,4)-benzenacyclo undecaphane-6,10-dicarboxamide] | 8.6 ± 2.2 nM | 10000 µg/mL (≈ 13.8 mM) |  |  |  | Ki (rhMMP-12 [1]): 2.2 ± 0.5 nM
2 | CC(C)CC1C(=O)NC(C(=O)NCc2ccc(CNC(=O)c3ccc(NN)nc3)cc2)Cc2ccc(cc2)OCCCC1C(=O)NO (centres unmarked) [RP805 precursor] |  |  | poor water solubility |  |  | 
3 | CNC(=O)[C@H](Cc1ccccc1)NC(=O)[C@H](CC(C)C)[C@H](CSc1cccs1)C(=O)NO [batimastat (BB-94), batimastat] |  |  | very poor water solubility |  |  | 
4 | CNC(=O)[C@H](Cc1c[nH]c2ccccc12)NC(=O)[C@@H](CC(=O)NO)CC(C)C [GM-6001, reference compound] | 113 ± 4.1 nM |  | very poor water solubility | 0.4 nM | 0.6 nM | Ki (rhMMP-13): 0.3 nM
5 | CNC(=O)C(CCCNC(=N)N)NC(=O)C1Cc2ccc(cc2)OCCCC(C(=O)NO)C(CC(C)C)C(=O)N1 (centres unmarked) [RYM] | 4.9 ± 1.3 nM | 10000 µg/mL (≈ 17.8 mM) |  | 17.2 ± 0.1 nM | 1 ± 0.5 nM | Ki (rhMMP-9): 20.4 ± 2 nM; Ki (rhMMP-13; mean ± SD of three experiments, read-out: Ki rhMMP-13): 15.3 ± 5.4 nM; Ki (rhMMP-2): 5.8 ± 0.4 nM
